This passage reports Kd results from PMC3367765 (Pflugers Archiv, 2012).

Where two headings read alike, the source gives them in different places.

The target of one test is T1, Kvβ3 (Mus musculus, UniProt F6YMI4).
T1 sequence (F6YMI4 1-404): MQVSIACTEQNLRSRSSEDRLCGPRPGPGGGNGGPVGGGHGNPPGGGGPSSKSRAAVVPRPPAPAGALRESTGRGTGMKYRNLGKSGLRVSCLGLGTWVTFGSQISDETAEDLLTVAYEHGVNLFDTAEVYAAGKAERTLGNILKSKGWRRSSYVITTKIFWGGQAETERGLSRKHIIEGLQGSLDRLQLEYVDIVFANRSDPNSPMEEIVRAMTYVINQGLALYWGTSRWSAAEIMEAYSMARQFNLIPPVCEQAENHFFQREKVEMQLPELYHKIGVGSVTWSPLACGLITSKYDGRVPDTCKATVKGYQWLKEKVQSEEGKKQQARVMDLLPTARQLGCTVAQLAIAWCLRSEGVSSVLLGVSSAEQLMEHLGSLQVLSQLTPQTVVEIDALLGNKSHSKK
Nature of the test: fluorescence titration. It is filed as binding.

In test [1] the target is T2, Kvβ2 (AKR part, amino acid residues 39-367) (UniProt P62483 39-367).
T2 sequence (looked up): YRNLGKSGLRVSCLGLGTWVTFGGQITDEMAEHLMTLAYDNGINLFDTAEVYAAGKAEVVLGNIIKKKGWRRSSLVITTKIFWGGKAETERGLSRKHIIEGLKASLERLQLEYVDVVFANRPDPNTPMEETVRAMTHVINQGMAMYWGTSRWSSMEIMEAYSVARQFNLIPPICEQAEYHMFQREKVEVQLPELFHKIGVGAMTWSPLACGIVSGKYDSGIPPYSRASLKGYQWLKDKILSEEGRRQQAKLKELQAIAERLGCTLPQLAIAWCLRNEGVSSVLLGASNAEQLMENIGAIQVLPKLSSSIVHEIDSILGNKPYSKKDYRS
The test can be described thus: pull-down.

Test [2] addresses T2, Kvβ2 (AKR part, amino acid residues …). The test can be described thus: pull-down. The source holds these as a separate data set.

Usually Kd stands for the equilibrium constant for the complex coming apart.

`NC(=O)C1=CN([C@@H]2O[C@H](COP(=O)(O)OP(=O)(O)OC[C@H]3O[C@@H](n4cnc5c(N)ncnc54)[C@H](OP(=O)(O)O)[C@@H]3O)[C@@H](O)[C@H]2O)C=CC1` [NADPH] had a Kd at Kvβ3 of 5.6 ± 0.26 µM. As for `NC(=O)c1ccc[n+]([C@@H]2O[C@H](COP(=O)(O)OP(=O)(O)OC[C@H]3O[C@@H](n4cnc5c(N)ncnc54)[C@H](OP(=O)(O)O)[C@@H]3O)[C@@H](O)[C@H]2O)c1` [NADP^+], the Kd on Kvβ3 amounted to 38 ± 9 µM.

B1: GST-C60 protein expressed from pDEST-26 vector (domain or fragment, rat, UniProt P19024 543-602, looked up)
chain: RKVSCSKASFCKTGGSLESSDSIRRGSCPLEKCHLKAKSNVDLRRSLYALCLDTSRETDL
Consider B1, for which the Kd in test [1] is 5.2 ± 0.8 µM; in test [2], 9.9 ± 1.7 µM.
